In patent US10399948B2, “Negative allosteric modulators of metabotropic glutamate receptor 3” (Vanderbilt University, priority 2015, dated 2019):

Key:
rat mGlu3 = rat mGlu3 (Rattus norvegicus (Rat), UniProt P31422); test: mGlu3 Ca2+ flux assay; assay type: cell-based; conditions: for IC50: NAM, glutamate EC80, >10,000 = decrease without plateau, >30,000 = no measurable activity; for remaining activity at 30 µM: response at 30 μM test compound as percentage of maximal response to glutamate, read-out: rat mGlu3 Glu max (%)
Chain of rat mGlu3 (P31422 23-879): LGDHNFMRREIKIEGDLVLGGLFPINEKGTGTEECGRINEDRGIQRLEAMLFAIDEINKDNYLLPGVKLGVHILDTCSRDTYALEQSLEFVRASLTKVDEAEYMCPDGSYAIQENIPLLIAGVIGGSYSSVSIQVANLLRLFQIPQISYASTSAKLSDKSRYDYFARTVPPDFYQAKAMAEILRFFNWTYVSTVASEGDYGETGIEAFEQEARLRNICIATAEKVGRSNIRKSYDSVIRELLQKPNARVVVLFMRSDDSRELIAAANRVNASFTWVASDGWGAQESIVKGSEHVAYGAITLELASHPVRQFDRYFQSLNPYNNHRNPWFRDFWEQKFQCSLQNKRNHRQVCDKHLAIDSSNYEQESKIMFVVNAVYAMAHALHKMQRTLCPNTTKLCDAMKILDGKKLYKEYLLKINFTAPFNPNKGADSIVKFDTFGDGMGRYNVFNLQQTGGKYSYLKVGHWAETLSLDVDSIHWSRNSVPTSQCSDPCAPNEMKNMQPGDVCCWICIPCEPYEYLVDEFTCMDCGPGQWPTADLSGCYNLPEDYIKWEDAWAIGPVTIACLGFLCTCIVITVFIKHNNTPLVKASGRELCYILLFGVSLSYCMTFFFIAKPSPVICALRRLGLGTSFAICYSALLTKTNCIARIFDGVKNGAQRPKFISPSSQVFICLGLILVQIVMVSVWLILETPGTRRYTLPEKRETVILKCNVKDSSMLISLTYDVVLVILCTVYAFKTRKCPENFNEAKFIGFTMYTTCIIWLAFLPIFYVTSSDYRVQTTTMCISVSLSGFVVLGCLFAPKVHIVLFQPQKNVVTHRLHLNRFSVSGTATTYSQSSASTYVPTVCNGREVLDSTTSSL
Experimental: Gα15/TREx cells stably expressing rat mGlu3 were plated in black-walled, clear-bottomed, poly-D-lysine coated 384-well plates in 20 μL of assay medium (DMEM containing 10% dialyzed FBS, 20 mM HEPES, 25 ng/mL tetracycline, 100 units/mL penicillin/streptomycin plus 250 ng/mL Fungizone, and 1 mM sodium pyruvate) at a density of 15K cells/well. The cells were grown overnight at 37° C. in the presence of 5% CO2. […] Dye was removed, 20 μL of assay buffer was added, and the plate was incubated for 10 minutes at room temperature.
(§1) Ca^2+ flux was measured using the Functional Drug Screening System (FDSS7000, Hamamatsu, Japan). After establishment of a fluorescence baseline for about 3 seconds, the compounds of the present invention were added to the cells, and the response in cells was measured. 2.3 minutes later an EC20 concentration of the mGlu3 receptor agonist glutamate was added to the cells, and the response of the cells was measured for 1.9 minutes; an EC80 concentration of agonist was added and readings taken for an additional 1.7 minutes. All test compounds were dissolved and diluted to a concentration of 10 mM in 100% DMSO. Compounds were then serially diluted 1:3 in DMSO into 10 point concentration response curves, transferred to daughter plates, and further diluted into assay buffer to a 2× stock. Calcium fluorescence measures were recorded as fold over basal fluorescence; raw data was then normalized to the maximal response to glutamate.
(§2) The raw data file containing all time points was used as the data source in the analysis template. This was saved by the FDSS as a tab-delimited text file. Data were normalized using a static ratio function (F/F0) for each measurement of the total 360 values per well divided by each well's initial value. Data were then reduced to peak amplitudes (Max−Initial Min) using a time range that starts approximately 3 seconds prior to the glutamate EC80 addition and continues for approximately 90 seconds. This is sufficient time to capture the peak amplitude of the cellular calcium response. Individual amplitudes were expressed as % EMax by multiplying each amplitude by 100 and then dividing the product by the mean of the amplitudes derived from the glutamate ECMax-treated wells. EC50 values for test compounds were generated by fitting the normalized values versus the log of the test compound concentration (in mol/L) using a 4 parameter logistic equation where none of the parameters were fixed. Each of the three values collected at each concentration of test compound were weighted evenly.

rat mGlu2 = rat mGlu2 (Rattus norvegicus (Rat), UniProt P31421); test: mGlu2 Ca2+ flux assay; assay type: cell-based; conditions: NAM, glutamate EC80; >30,000 = no measurable activity
Chain of rat mGlu2 (P31421 19-872): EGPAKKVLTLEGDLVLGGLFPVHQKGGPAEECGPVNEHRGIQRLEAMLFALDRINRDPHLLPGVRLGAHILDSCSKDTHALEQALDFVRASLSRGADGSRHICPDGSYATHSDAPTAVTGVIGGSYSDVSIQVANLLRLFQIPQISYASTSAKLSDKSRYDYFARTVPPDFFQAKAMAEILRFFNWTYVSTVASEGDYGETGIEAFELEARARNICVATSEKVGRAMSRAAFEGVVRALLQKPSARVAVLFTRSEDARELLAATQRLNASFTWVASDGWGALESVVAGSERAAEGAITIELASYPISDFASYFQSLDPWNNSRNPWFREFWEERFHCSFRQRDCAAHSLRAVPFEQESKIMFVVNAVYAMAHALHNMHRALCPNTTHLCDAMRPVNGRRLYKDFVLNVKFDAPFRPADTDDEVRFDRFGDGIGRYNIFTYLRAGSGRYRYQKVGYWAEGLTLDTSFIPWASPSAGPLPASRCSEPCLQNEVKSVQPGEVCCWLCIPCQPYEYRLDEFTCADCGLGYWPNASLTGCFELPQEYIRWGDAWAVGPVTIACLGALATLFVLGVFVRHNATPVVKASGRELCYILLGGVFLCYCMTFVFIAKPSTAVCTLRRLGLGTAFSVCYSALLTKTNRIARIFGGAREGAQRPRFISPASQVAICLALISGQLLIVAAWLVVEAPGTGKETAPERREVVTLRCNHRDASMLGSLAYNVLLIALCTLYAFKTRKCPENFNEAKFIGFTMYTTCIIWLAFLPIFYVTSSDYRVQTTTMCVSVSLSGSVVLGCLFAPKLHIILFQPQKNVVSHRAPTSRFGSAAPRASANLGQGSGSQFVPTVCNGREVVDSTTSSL
Experimental: Gα15 HEK293 cells stably expressing rat mGlu2 were plated in black-walled, clear-bottomed, poly-D-lysine coated 384-well plates in 20 μL of assay medium (DMEM containing 10% dialyzed FBS, 20 mM HEPES, and 1 mM sodium pyruvate) at a density of 12K cells/well. The cells were grown overnight at 37° C. in the presence of 5% CO2. The next day, medium was removed and the cells incubated with 20 μL of […] Fluo-4, AM prepared as a 2.3 mM stock in DMSO and mixed in a 1:1 ratio with 10% (w/v) pluronic acid F-127 and diluted in assay buffer (Hank's balanced salt solution, 20 mM HEPES, and 2.5 mM probenecid) for 45 minutes at 37° C. Dye was removed, 20 μL of assay buffer was added, and the plate was incubated for 5 minutes at room temperature.
as §1, with “mGlu2” for “mGlu3”
as §2, with “ECMax” for “EMax”, “IC50” for “EC50”

| SMILES | IC50 (rat mGlu3) [µM] | remaining activity at 30 µM (rat mGlu3) [%] | IC50 (rat mGlu2) [µM] |
| --- | --- | --- | --- |
| O=c1cc(OCCCc2ccccc2)ccn1-c1ccc(F)cc1 [Compound 2, 1-(4-fluorophenyl)-4-(3-phenylpropoxy)pyridin-2(1H)-one] | 5.41 | 1.95 | > 30 |
| O=c1cc(OCCSc2ccccc2)ccn1-c1ccc(F)cc1 [Compound 3, 1-(4-fluorophenyl)-4-(2-(phenylthio)ethoxy)pyridin-2(1H)-one] | 3.89 | 1.42 | > 30 |
| CN(CCOc1ccn(-c2ccc(F)cc2)c(=O)c1)c1ccccc1 [Compound 4, 1-(4-fluorophenyl)-4-(2-(methyl(phenyl)amino)ethoxy)pyridin-2(1H)-one] | 4 | 0 | > 30 |
| O=c1cc(OCCOC2CCCC2)ccn1-c1ccc(F)cc1 [Compound 6, 4-(2-(cyclopentyloxy)ethoxy)-1-(4-fluorophenyl)pyridin-2(1H)-one] | > 30 |  |  |
| O=c1cc(OCCOC2CCCCC2)ccn1-c1ccc(F)cc1 [Compound 7, 4-(2-(cyclohexyloxy)ethoxy)-1-(4-fluorophenyl)pyridin-2(1H)-one] | > 10 | 15.5 |  |
| O=c1cc(OCC[S+]([O-])c2ccccc2)ccn1-c1ccc(F)cc1 (centres unmarked) [Compound 8, 1-(4-fluorophenyl)-4-(2-(phenylsulfinyl)ethoxy)pyridin-2(1H)-one] | > 30 |  |  |
| O=c1cc(OCCS(=O)(=O)c2ccccc2)ccn1-c1ccc(F)cc1 [Compound 9, 1-(4-fluorophenyl)-4-(2-(phenylsulfonyl)ethoxy)pyridin-2(1H)-one] | > 30 |  |  |
| O=c1cc(OCCOc2ccccc2)ccn1-c1ccccc1F [Compound 10, 1-(2-Fluorophenyl)-4-(2-phenoxyethoxy)pyridin-2-one] | 3.93 | 1.16 | > 30 |
| O=c1cc(OCCOc2ccccc2)ccn1-c1ccccn1 [Compound 11, 4-(2-phenoxyethoxy)-2H-[1,2′-bipyridin]-2-one] | > 30 |  | > 30 |
| O=c1cc(OCCOc2ccccc2)ccn1-c1cccc(F)n1 [Compound 12, 6′-fluoro-4-(2-phenoxyethoxy)-2H-[1,2′-bipyridin]-2-one] | > 10 | 33.2 | > 30 |
| O=c1cc(OCCOc2ccccc2)ccn1-c1ccncc1 [Compound 13, 4-(2-phenoxyethoxy)-2H-[1,4′-bipyridin]-2-one] | > 30 |  | > 30 |
| O=c1nc(OCCOc2ccccc2)ccn1-c1ccc(F)cn1 [Compound 16, 1-(5-fluoropyridin-2-yl)-4-(2-phenoxyethoxy)pyrimidin-2(1H)-one] | > 10 | 23.9 | > 30 |
| N#Cc1ccc(-n2ccc(OCCOc3ccccc3)cc2=O)cc1 [Compound 24, 4-(2-oxo-4-(2-phenoxyethoxy)pyridin-1(2H)-yl)benzonitrile] | 3.17 | 0.49 | > 30 |
| O=c1cc(OCCOc2ccccc2)ccn1-c1ccc(F)nc1 [Compound 25, 6′-fluoro-4-(2-phenoxyethoxy)-2H-[1,3′-bipyridin]-2-one] | 6.75 | -2.95 | > 30 |
| N#Cc1cncc(-n2ccc(OCCOc3ccccc3)cc2=O)c1 [Compound 26, 2-oxo-4-(2-phenoxyethoxy)-2H-[1,3′-bipyridine]-5′-carbonitrile] | 3.41 | -5.24 | > 30 |
| O=c1cc(OCCOc2ccccc2)ccn1-c1cncc(F)c1 [Compound 27, 5′-fluoro-4-(2-phenoxyethoxy)-2H-[1,3′-bipyridin]-2-one] | 1.87 | 4.56 | > 30 |
| O=c1cc(OCCOc2ccccc2)cnn1-c1ccc(F)cc1 [Compound 29, 2-(4-Fluorophenyl)-5-(2-phenoxyethoxy)pyridazin-3(2H)-one] | 3.87 | 5.86 | > 30 |
| O=c1cc(OCCOc2ccc(F)cc2F)ccn1-c1ccc(F)cc1 [Compound 34, 4-(2-(2,4-difluorophenoxy)ethoxy)-1-(4-fluorophenyl)pyridin-2(1H)-one] | 1.45 | 1.32 | > 30 |
| O=c1cc(OCCOc2cc(F)ccc2F)ccn1-c1ccc(F)cc1 [Compound 35, 4-(2-(2,5-difluorophenoxy)ethoxy)-1-(4-fluorophenyl)pyridin-2(1H)-one] | 1.46 | 2.27 | > 30 |
| O=c1cc(OCCOc2c(F)cccc2F)ccn1-c1ccc(F)cc1 [Compound 36, 4-(2-(2,6-difluorophenoxy)ethoxy)-1-(4-fluorophenyl)pyridin-2(1H)-one] | 3.18 | -1.16 | > 30 |
| O=c1cc(OCCOc2ccccc2Cl)ccn1-c1ccc(F)cc1 [Compound 37, 4-(2-(2-chlorophenoxy)ethoxy)-1-(4-fluorophenyl)pyridin-2(1H)-one] | 1.84 | 2.05 | > 30 |
| O=c1cc(OCCOc2cccc(Cl)c2)ccn1-c1ccc(F)cc1 [Compound 38, 4-(2-(3-chlorophenoxy)ethoxy)-1-(4-fluorophenyl)pyridin-2(1H)-one] | 0.98 | 0.85 | > 30 |
| O=c1cc(OCCOc2cccnc2F)ccn1-c1ccc(F)cc1 [Compound 40, 1-(4-fluorophenyl)-4-(2-((2-fluoropyridin-3-yl)oxy)ethoxy)pyridin-2(1H)-one] | 4.74 | -4.22 | > 30 |
| N#Cc1ccc(OCCOc2ccn(-c3ccc(F)cc3)c(=O)c2)cc1 [Compound 42, 4-(2-((1-(4-fluorophenyl)-2-oxo-1,2-dihydropyridin-4-yl)oxy)ethoxy)benzonitrile] | 1.13 | 0.74 | > 30 |
| COCc1ccc(OCCOc2ccn(-c3ccc(F)cc3)c(=O)c2)cc1 [Compound 43, 1-(4-fluorophenyl)-4-(2-(4-(methoxymethyl)phenoxy)ethoxy)pyridin-2(1H)-one] | > 10 | 37.3 | > 30 |
| O=c1cc(OCCOc2cccnc2)ccn1-c1ccc(F)cc1 [Compound 44, 1-(4-fluorophenyl)-4-(2-(pyridin-3-yloxy)ethoxy)pyridin-2(1H)-one] | 10 | 1.83 | > 30 |
| O=c1cc(OCCOCc2ccccc2)ccn1-c1ccc(F)cc1 [W, 4-(2-(Benzyloxy)ethoxy)-1-(4-fluorophenyl)pyridin-2(1H)-one] | 13 | 14.5 |  |
